Results: the supplement of paper PMC10307832

Columns and labels:
Assay in all cases: relative viability (nuclei count vs DMSO), 5 days (fraction); higher = more cells survive
NCI-H1944 = system: NCI-H1944
Method in brief: (§1)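 Each reported value is a median over duplicate plates. It expresses relative viability: treated-well nuclei count divided by vehicle-well nuclei count. Lung cancer cell lines in 1536-well plates were dosed by pin tool a day after seeding, alone with one drug or with a fixed anchor-drug dose plus five library-drug doses (not always all listed) in √10 steps, and nuclei were counted after 5 days.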

NCI-H1975 = system: NCI-H1975
Method in brief: as §1

NCI-H1993 = system: NCI-H1993
Method in brief: as §1

NCI-H2228 = system: NCI-H2228
Method in brief: as §1

NCI-H3122 = system: NCI-H3122
Method in brief: as §1

NCI-H520 = system: NCI-H520
Method in brief: as §1

NCI-H647 = system: NCI-H647
Method in brief: as §1

NCI-H661 = system: NCI-H661
Method in brief: as §1

NCI-H838 = system: NCI-H838
Method in brief: as §1

PC-14 = system: PC-14
Method in brief: as §1

PC-3 [JPC-3] = system: PC-3 [JPC-3]
Method in brief: as §1

SK-LU-1 = system: SK-LU-1
Method in brief: as §1

How did the relative viability (NCI-H1944; first compound 2.53 µM) turn out when `O=c1[nH]c2ccccc2n1C1CCN(CCCC(c2ccc(F)cc2)c2ccc(F)cc2)CC1` [Pimozide] + CC(=O)Nc1cccc(-n2c(=O)n(C3CC3)c(=O)c3c(Nc4ccc(I)cc4F)n(C)c(=O)c(C)c32)c1 [Trametinib] (partner 0.02 µM) was run?
Its relative viability is 0.346.

What about the relative viability (NCI-H1944; first compound 8 µM) of the same compound?
The relative viability was 0.409.

And the relative viability (NCI-H1975; first compound 0.08 µM)?
Its relative viability is 0.273.

And the relative viability (NCI-H1975; first compound 0.253 µM)?
Its relative viability is 0.405.

And the relative viability (NCI-H1975; first compound 0.8 µM)?
Its relative viability is 0.363.

What about the relative viability (NCI-H1975; first compound 2.53 µM) of the same compound?
Its relative viability is 0.353.

What about the relative viability (NCI-H1975; first compound 8 µM) of the same compound?
Its relative viability is 0.227.

And the relative viability (NCI-H1993; first compound 0.08 µM)?
The relative viability was 0.561.

What about the relative viability (NCI-H1993; first compound 0.253 µM) of the same compound?
The relative viability was 0.495.

What about the relative viability (NCI-H1993; first compound 0.8 µM) of the same compound?
Its relative viability is 0.596.

And the relative viability (NCI-H1993; first compound 2.53 µM)?
The relative viability was 0.484.

And the relative viability (NCI-H1993; first compound 8 µM)?
Its relative viability is 0.553.

And the relative viability (NCI-H2228; first compound 0.08 µM)?
The relative viability was 0.514.

And the relative viability (NCI-H2228; first compound 0.253 µM)?
The relative viability was 0.475.

And the relative viability (NCI-H2228; first compound 0.8 µM)?
Its relative viability is 0.522.

And the relative viability (NCI-H2228; first compound 2.53 µM)?
The relative viability was 0.418.

What about the relative viability (NCI-H2228; first compound 8 µM) of the same compound?
Its relative viability is 0.167.

And the relative viability (NCI-H3122; first compound 0.08 µM)?
Its relative viability is 0.239.

What about the relative viability (NCI-H3122; first compound 0.253 µM) of the same compound?
Its relative viability is 0.227.

And the relative viability (NCI-H3122; first compound 0.8 µM)?
The relative viability was 0.216.

And the relative viability (NCI-H3122; first compound 2.53 µM)?
Its relative viability is 0.252.

And the relative viability (NCI-H3122; first compound 8 µM)?
The relative viability was 0.188.

And the relative viability (NCI-H520; first compound 0.08 µM)?
The relative viability was 0.632.

And the relative viability (NCI-H520; first compound 0.253 µM)?
The relative viability was 0.68.

What about the relative viability (NCI-H520; first compound 0.8 µM) of the same compound?
Its relative viability is 0.627.

What about the relative viability (NCI-H520; first compound 2.53 µM) of the same compound?
Its relative viability is 0.601.

And the relative viability (NCI-H520; first compound 8 µM)?
The relative viability was 0.54.

And the relative viability (NCI-H647; first compound 0.08 µM)?
The relative viability was 0.555.

What about the relative viability (NCI-H647; first compound 0.253 µM) of the same compound?
Its relative viability is 0.491.

And the relative viability (NCI-H647; first compound 0.8 µM)?
Its relative viability is 0.476.

What about the relative viability (NCI-H647; first compound 2.53 µM) of the same compound?
The relative viability was 0.316.

What about the relative viability (NCI-H647; first compound 8 µM) of the same compound?
The relative viability was 0.353.

And the relative viability (NCI-H661; first compound 0.08 µM)?
Its relative viability is 0.598.

What about the relative viability (NCI-H661; first compound 0.253 µM) of the same compound?
Its relative viability is 0.583.

What about the relative viability (NCI-H661; first compound 0.8 µM) of the same compound?
Its relative viability is 0.498.

What about the relative viability (NCI-H661; first compound 2.53 µM) of the same compound?
The relative viability was 0.492.

What about the relative viability (NCI-H661; first compound 8 µM) of the same compound?
Its relative viability is 0.409.

What about the relative viability (NCI-H838; first compound 0.08 µM) of the same compound?
Its relative viability is 0.536.

What about the relative viability (NCI-H838; first compound 0.253 µM) of the same compound?
The relative viability was 0.561.

What about the relative viability (NCI-H838; first compound 0.8 µM) of the same compound?
Its relative viability is 0.482.

What about the relative viability (NCI-H838; first compound 2.53 µM) of the same compound?
Its relative viability is 0.528.

What about the relative viability (NCI-H838; first compound 8 µM) of the same compound?
Its relative viability is 0.571.

What about the relative viability (PC-14; first compound 0.253 µM) of the same compound?
The relative viability was 0.622.

And the relative viability (PC-14; first compound 0.8 µM)?
Its relative viability is 0.686.

What about the relative viability (PC-14; first compound 2.53 µM) of the same compound?
The relative viability was 0.607.

And the relative viability (PC-14; first compound 8 µM)?
The relative viability was 0.62.

And the relative viability (PC-3 [JPC-3]; first compound 0.253 µM)?
Its relative viability is 0.683.

What about the relative viability (PC-3 [JPC-3]; first compound 0.8 µM) of the same compound?
Its relative viability is 0.651.

What about the relative viability (PC-3 [JPC-3]; first compound 2.53 µM) of the same compound?
Its relative viability is 0.656.

What about the relative viability (PC-3 [JPC-3]; first compound 8 µM) of the same compound?
The relative viability was 0.607.

What about the relative viability (SK-LU-1; first compound 0.08 µM) of the same compound?
The relative viability was 0.463.

What about the relative viability (SK-LU-1; first compound 0.253 µM) of the same compound?
The relative viability was 0.472.

What about the relative viability (SK-LU-1; first compound 0.8 µM) of the same compound?
The relative viability was 0.455.

What about the relative viability (SK-LU-1; first compound 2.53 µM) of the same compound?
The relative viability was 0.404.

What about the relative viability (SK-LU-1; first compound 8 µM) of the same compound?
Its relative viability is 0.352.
